Measured values taken from US9846168B2, “Fluorescent metal ion indicators with large stokes shifts” (LIFE TECHNOLOGIES CORPORATION, priority 2004, dated 2017).

What was measured:
[1] = Absorption and fluorescence emission spectra of calcium binding compounds; type: physicochemical; conditions: for λem (nm): emission maximum, excited at wavelength of maximum absorption, Ca++ buffers 0-39 μM; for λex (nm): wavelength of maximum absorption, 39 μM Ca++ buffer, 100 mM KCl, 30 mM MOPS pH7.2 (Compounds 5, 10, 13), Zero Ca++ buffer (Compound 18), npH2O (Compound 21)
Protocol: (§1) In all cases, samples were dissolved in nanopure(np)-H2O at concentrations of approximately 1 mg/mL, except Compound 18 which was dissolved in 1:1 DMSO:npH2O. Non-quantitative aliquots of these solutions were added to approximately 3 mL of 39 μM Ca++ buffer, 100 mM KCl, 30 mM MOPS (pH7.2) (Compounds 5, 10, 13), Zero Ca++ buffer, 100 mM KCl, 30 mM MOPS (pH7.2) (Compound 18), or npH2O (Compound 21). Absorption spectra were obtained using a Perkin Elmer UV/Vis Spectrometer (Lambda 35 or 40). Fluorescence samples were prepared by pipetting aliquots of respective stock solutions to a series of disposable cuvettes containing 2 mL of Ca++ buffers from Calcium Calibration Buffer Kit #2 (Invitrogen cat.#3009) (0-39 μM). The final concentration of compound ranged from approximately 0.1-4 μM. Samples were excited at their wavelength of maximum absorption and spectra were obtained using a Perkin Elmer Luminescence Spectrometer (LS50B, LS55). Emission intensities were recorded at the respective maxima and Kd values calculated.

[2] = Calcium binding: fluorescence titration in Ca++ buffers (0-39 μM), Kd calculated; conditions: fluorescence change on calcium binding
Protocol: as §1

| Compound | λem (nm) [1] | λex (nm) [1] | ΔF = Fb/Fo [2] |
| --- | --- | --- | --- |
| Cc1ccc(N(CC(=O)[O-])CC(=O)[O-])c(OCCOc2cc(CNS(=O)(=O)c3cccc4c(N(C)C)cccc34)ccc2N(CC(=O)[O-])CC(=O)[O-])c1.[K+].[K+].[K+].[K+] [Compound 5] | 549 nm | 331 nm | 3 |
| Cc1ccc(N(CC(=O)[O-])CC(=O)[O-])c(OCCOc2cc(CN3C(=O)c4cccc5c(N)ccc(c45)C3=O)ccc2N(CC(=O)[O-])CC(=O)[O-])c1.[K+].[K+].[K+].[K+] [Compound 13] | 550 nm | 432 nm | 12 |
| Cc1ccc(N(CC(=O)[O-])CC(=O)[O-])c(OCCOc2cc(CNC(=O)c3c4oc5cc(O)ccc5nc-4ccc3=O)ccc2N(CC(=O)[O-])CC(=O)[O-])c1.[Li+].[Li+].[Li+].[Li+] [Compound 18] | 589 nm | 550 nm | 5 |
| Cc1ccc(N(CC(=O)[O-])CC(=O)[O-])c(OCCOc2cc(CNC(=O)c3cc(=O)cc4oc5cc(N(C)C)ccc5nc3-4)ccc2N(CC(=O)[O-])CC(=O)[O-])c1.[Li+].[Li+].[Li+].[Li+] [Compound 21] | 641 nm | 612 nm | 11 |
